Source: PubChem BioAssay AID1963441 (Molecular Pharmacology Branch, DTP, NCI, 2024)

Tested on: NCI-H1876 complex spheroid growth, % test/control
Assay: Anticancer human tumor NCI-H1876 cell line growth inhibition [Asc];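 also: compound exposure lasted 7 days starting three days after seeding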;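 as to viability, T/C: 100% = DMSO vehicle control wells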
Conditions: for IC50: curve of first compound; for viability, T/C: stronger effect = lower value
Experimental: Multicellular complex tumor spheroid response to apoptosis pathway targeting inhibitors Alrizomadlin, Pelcitoclax, and Dasminapant in combination with a variety of drugs and investigational agents in selected tumor cell lines
The MDM2 inhibitor alrizomadlin, the Bcl-2/Bcl-xL inhibitor pelcitoclax, and the IAPs inhibitor dasminapant were evaluated both individually and in combination with standard of care and investigational anticancer small molecules within a complex spheroid model of solid tumors. . Complex spheroids include a stromal component modeled by human endothelial cells (HUVEC) and fibroblasts modeled by human mesenchymal stem cells (MSCs). The concentration ranges selected for each drug and investigational agent were based upon clinically achievable concentrations if the clinical Cmax of the agent was known.
Compounds. The drugs and investigational agents: alrizomadlin (APG-115; NSC831270), pelcitoclax (APG-1252; NSC835773), dasminapant (APG-1387;NSC834197), TAK-243 (NSC785004), copanlisib (NSC809693), olaparib (NSC753686), talazoparib (NSC767125), cobimetinib (NSC 768068), eltanexor (KPT-8602, NSC 794443), abemaciclib (NSC 768073), sotorasib (NSC818433), adagrasib (NSC 831453), MRTX-1133 (NSC 836407), Iadademestat (ORY1001, NSC 806812), and RMC-4630 (NSC839698), were obtained from the NCI Developmental Therapeutics Program Chemical Repository. The FDA-approved anticancer drug set is available from the Developmental Therapeutics Program at https://dtp.cancer.gov/organization/dscb/obtaining/available plates.htm. […] The stock solutions were prepared in dimethyl sulfoxide (DMSO, Sigma-Aldrich, St. Louis, MO, cat. D2650) at 800-fold the tested concentration and stored at -70 degrees C prior to their use. All drugs and investigational agents were tested over a range starting from a high concentration at or near the clinical Cmax and decreasing in half-log increments. If the clinical Cmax for an agent had not been determined, the highest concentration tested was 10 microM.
The patient-derived cancer (PDC) cell lines include five colon adenocarcinomas: 186277-243-T-J2-PDC, 616215-338-R-J1-PDC, 439559-082-T-J2-PDC, 463943-066-T-J2-PDC, and 519858-162-T-J1-PDC; three pancreatic carcinomas: 323965-272-R-J2-PDC, 521955-158-R6-J3-PDC, and 521955-158-R2-J5-PDC; two uterine sarcomas: 327498-152-R-J2-PDC and 993429-296-R-J1-PDC; two rhabdomyosarcomas: 755483-174-R-J1-PDC and 772245-204-R-J1-PDC; two soft tissue sarcomas: 126254-015-R-J1-PDC and 494315-158-R-J1-PDC; two malignant fibrous histiocytomas: 317291-083-R-J1-PDC and 596521-263-R-J1-PDC; two breast carcinomas: 171881-019-R-J1-PDC and 885512-296-R-J2-PDC; and one ovarian carcinoma: 6556581-035-R-J-PDC were obtained from the NCI PDMR, (https://pdmr.cancer.gov). The established cell lines HSSY-2 synovial sarcoma (RRID:CVCL 8719), SYO-1 synovial sarcoma (RRID:CVCL_7146), MPNST malignant peripheral neural sheath tumor were obtained from the Sloan Kettering Institute. The following established cell lines were purchased from the American Type Culture Collection (ATCC, Manassas, VA), Sor the received from the NCI repository:, PANC-1 pancreatic carcinoma (CRL-1469, RRID:CVCL_0480), OVCAR-5 ovarian carcinoma (RRID:CVCL_1628), OVCAR-8 ovarian carcinoma (RRID:CVCL_1629), , MCF-7 breast carcinoma (CRL-12584, RRID:CVCL_0031), MDA-MB-231 breast carcinoma (CRL-12532, RRID:CVCL_0062), NCI-H1876 small cell lung carcinoma (CRL-5902, RRID:CVCL_1503), NCI-H510A small cell lung carcinoma (HTB-184, RRID:CVCL_1565), NCI-H1417 (CRL-5869, RRID:CVCL_1469), and NCI-H196 small cell lung carcinoma (CRL-5823, RRID:CVCL_1509). Dr. Peter Houghton (Greehey Children's Cancer Research Institute, University of Texas Health Science Center, San Antonio, TX) provided Rh-18 rhabdomyosarcoma (RRID:CVCL_1659). Pooled donor human umbilical vein endothelial cells (HUVEC, Lonza, cat. CC-2519) and human mesenchymal stem cells (hMSC, Lonza, cat. PT-2501) were purchased from Lonza (Walkersville, MD).
Cell Culture. […]

CNC(C)C(=O)NC1CN(S(=O)(=O)c2cccc(S(=O)(=O)N3CCC4CCC(C(=O)NC(c5ccccc5)c5ccccc5)N4C(=O)C(NC(=O)C(C)NC)C3)c2)CCC2CCC(C(=O)NC(c3ccccc3)c3ccccc3)N2C1=O (centres undefined) + Cc1c(S(C)(=O)=O)c(-c2cc(F)cc(N3CCN(c4ccc(NS(=O)(=O)c5ccc(NC(CCN6CCC(C(=O)OCCCP(=O)(O)O)CC6)CSc6ccccc6)c(S(=O)(=O)C(F)(F)F)c5)cc4)CC3)c2)c(-c2ccc(Cl)cc2)n1C(C)C
IC50 (second compound 0.0316 µM): > 1 µM | IC50 (second compound 0.1 µM): > 1 µM | IC50 (second compound 0.316 µM): > 1 µM | IC50 (second compound 1 µM): > 1 µM | IC50 (second compound 3.16 µM): > 1 µM | IC50 (second compound 10 µM): > 1 µM | viability, T/C (second compound 0.0316 µM, first compound 0.00316 µM): 95.1% | viability, T/C (second compound 0.0316 µM, first compound 0.01 µM): 96.4% | viability, T/C (second compound 0.0316 µM, first compound 0.0316 µM): 98% | viability, T/C (second compound 0.0316 µM, first compound 0.1 µM): 97.8% | viability, T/C (second compound 0.0316 µM, first compound 0.316 µM): 103% | viability, T/C (second compound 0.0316 µM, first compound 1 µM): 103% | viability, T/C (second compound 0.1 µM, first compound 0.00316 µM): 91.3% | viability, T/C (second compound 0.1 µM, first compound 0.01 µM): 96.2% | viability, T/C (second compound 0.1 µM, first compound 0.0316 µM): 95% | viability, T/C (second compound 0.1 µM, first compound 0.1 µM): 98.8% | viability, T/C (second compound 0.1 µM, first compound 0.316 µM): 105% | viability, T/C (second compound 0.1 µM, first compound 1 µM): 98.7% | viability, T/C (second compound 0.316 µM, first compound 0.00316 µM): 101% | viability, T/C (second compound 0.316 µM, first compound 0.01 µM): 102% | viability, T/C (second compound 0.316 µM, first compound 0.0316 µM): 97.2% | viability, T/C (second compound 0.316 µM, first compound 0.1 µM): 97.3% | viability, T/C (second compound 0.316 µM, first compound 0.316 µM): 103% | viability, T/C (second compound 0.316 µM, first compound 1 µM): 104% | viability, T/C (second compound 1 µM, first compound 0.00316 µM): 94% | viability, T/C (second compound 1 µM, first compound 0.01 µM): 91.6% | viability, T/C (second compound 1 µM, first compound 0.0316 µM): 91.6% | viability, T/C (second compound 1 µM, first compound 0.1 µM): 100% | viability, T/C (second compound 1 µM, first compound 0.316 µM): 112% | viability, T/C (second compound 1 µM, first compound 1 µM): 92.7% | viability, T/C (second compound 3.16 µM, first compound 0.00316 µM): 99.9% | viability, T/C (second compound 3.16 µM, first compound 0.01 µM): 87.2% | viability, T/C (second compound 3.16 µM, first compound 0.0316 µM): 96.1% | viability, T/C (second compound 3.16 µM, first compound 0.1 µM): 88.1% | viability, T/C (second compound 3.16 µM, first compound 0.316 µM): 101% | viability, T/C (second compound 3.16 µM, first compound 1 µM): 91.8% | viability, T/C (second compound 10 µM, first compound 0.00316 µM): 97.4% | viability, T/C (second compound 10 µM, first compound 0.01 µM): 97.4% | viability, T/C (second compound 10 µM, first compound 0.0316 µM): 88.3% | viability, T/C (second compound 10 µM, first compound 0.1 µM): 110% | viability, T/C (second compound 10 µM, first compound 0.316 µM): 102% | viability, T/C (second compound 10 µM, first compound 1 µM): 101%

C=CC(=O)N1CCN(c2nc(=O)n(-c3c(C)ccnc3C(C)C)c3nc(-c4c(O)cccc4F)c(F)cc23)C(C)C1 (centres undefined) + CCN1C(C(=O)NC23CCC(C(=O)O)(CC2)CC3)C(c2cccc(Cl)c2F)C2(C(=O)Nc3cc(Cl)ccc32)C12CCCCC2
IC50 (second compound 0.00949 µM): > 10 µM | IC50 (second compound 0.03 µM): > 10 µM | IC50 (second compound 0.0949 µM): > 10 µM | IC50 (second compound 0.3 µM): > 10 µM | IC50 (second compound 0.949 µM): > 10 µM | IC50 (second compound 3 µM): > 10 µM | viability, T/C (second compound 0.00949 µM, first compound 0.0316 µM): 93.5% | viability, T/C (second compound 0.00949 µM, first compound 0.1 µM): 90.4% | viability, T/C (second compound 0.00949 µM, first compound 0.316 µM): 101% | viability, T/C (second compound 0.00949 µM, first compound 1 µM): 108% | viability, T/C (second compound 0.00949 µM, first compound 3.16 µM): 118% | viability, T/C (second compound 0.00949 µM, first compound 10 µM): 106% | viability, T/C (second compound 0.03 µM, first compound 0.0316 µM): 98.2% | viability, T/C (second compound 0.03 µM, first compound 0.1 µM): 101% | viability, T/C (second compound 0.03 µM, first compound 0.316 µM): 104% | viability, T/C (second compound 0.03 µM, first compound 1 µM): 103% | viability, T/C (second compound 0.03 µM, first compound 3.16 µM): 110% | viability, T/C (second compound 0.03 µM, first compound 10 µM): 107% | viability, T/C (second compound 0.0949 µM, first compound 0.0316 µM): 96.8% | viability, T/C (second compound 0.0949 µM, first compound 0.1 µM): 93.4% | viability, T/C (second compound 0.0949 µM, first compound 0.316 µM): 107% | viability, T/C (second compound 0.0949 µM, first compound 1 µM): 106% | viability, T/C (second compound 0.0949 µM, first compound 3.16 µM): 117% | viability, T/C (second compound 0.0949 µM, first compound 10 µM): 107% | viability, T/C (second compound 0.3 µM, first compound 0.0316 µM): 103% | viability, T/C (second compound 0.3 µM, first compound 0.1 µM): 106% | viability, T/C (second compound 0.3 µM, first compound 0.316 µM): 115% | viability, T/C (second compound 0.3 µM, first compound 1 µM): 114% | viability, T/C (second compound 0.3 µM, first compound 3.16 µM): 114% | viability, T/C (second compound 0.3 µM, first compound 10 µM): 109% | viability, T/C (second compound 0.949 µM, first compound 0.0316 µM): 118% | viability, T/C (second compound 0.949 µM, first compound 0.1 µM): 115% | viability, T/C (second compound 0.949 µM, first compound 0.316 µM): 104% | viability, T/C (second compound 0.949 µM, first compound 1 µM): 114% | viability, T/C (second compound 0.949 µM, first compound 3.16 µM): 118% | viability, T/C (second compound 0.949 µM, first compound 10 µM): 112% | viability, T/C (second compound 3 µM, first compound 0.0316 µM): 112% | viability, T/C (second compound 3 µM, first compound 0.1 µM): 99.6% | viability, T/C (second compound 3 µM, first compound 0.316 µM): 96.7% | viability, T/C (second compound 3 µM, first compound 1 µM): 109% | viability, T/C (second compound 3 µM, first compound 3.16 µM): 114% | viability, T/C (second compound 3 µM, first compound 10 µM): 107%
